Columns and labels:
Cbl-b [1] = biological target: T1, Cbl-b (Homo sapiens, UniProt Q13191); test: Cbl-b Degradation Method B (Nano-Glo HiBiT lytic detection); assay type: cell-based; settings: Cbl-b-HiBit KI Jurkat Cells, incubated at least 6-24 hours; for DC50: half maximal degradation, read-out: Cbl-b Degredation Method B IC50; for Dmax: maximum degradation observed, read-out: Cbl-b Degredation Method B Dmax (%)
T1 construct: Cbl-b-HiBit KI Jurkat Cells were purchased from Promega; host or cells: Cbl-b-HiBiT knock-in Jurkat cells
T1 sequence (Q13191 whole entry): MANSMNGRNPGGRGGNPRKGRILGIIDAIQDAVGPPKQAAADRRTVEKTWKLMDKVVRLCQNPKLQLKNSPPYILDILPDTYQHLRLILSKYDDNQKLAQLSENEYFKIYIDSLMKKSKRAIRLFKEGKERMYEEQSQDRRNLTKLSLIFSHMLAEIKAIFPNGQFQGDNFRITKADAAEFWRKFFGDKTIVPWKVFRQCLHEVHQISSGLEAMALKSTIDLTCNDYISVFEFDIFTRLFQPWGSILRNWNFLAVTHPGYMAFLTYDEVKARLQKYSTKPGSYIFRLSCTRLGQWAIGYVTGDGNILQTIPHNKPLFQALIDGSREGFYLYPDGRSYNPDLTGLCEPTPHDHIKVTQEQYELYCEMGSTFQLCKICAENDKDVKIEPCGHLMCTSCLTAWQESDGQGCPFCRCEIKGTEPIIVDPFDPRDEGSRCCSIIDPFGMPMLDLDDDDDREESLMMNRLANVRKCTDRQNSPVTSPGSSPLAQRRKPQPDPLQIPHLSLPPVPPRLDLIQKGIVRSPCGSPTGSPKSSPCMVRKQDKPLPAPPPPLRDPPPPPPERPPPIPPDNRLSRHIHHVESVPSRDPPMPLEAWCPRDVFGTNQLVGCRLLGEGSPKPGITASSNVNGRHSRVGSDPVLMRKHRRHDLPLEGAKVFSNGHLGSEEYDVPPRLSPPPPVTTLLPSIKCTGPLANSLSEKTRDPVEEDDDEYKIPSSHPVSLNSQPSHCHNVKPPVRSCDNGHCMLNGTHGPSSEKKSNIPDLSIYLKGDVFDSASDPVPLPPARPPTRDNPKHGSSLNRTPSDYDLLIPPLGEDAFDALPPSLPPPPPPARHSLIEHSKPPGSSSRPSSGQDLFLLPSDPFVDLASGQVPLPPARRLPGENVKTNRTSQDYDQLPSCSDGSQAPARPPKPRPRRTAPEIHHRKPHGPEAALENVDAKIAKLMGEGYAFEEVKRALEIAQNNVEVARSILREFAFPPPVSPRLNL
Outline: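 An 11-point, 3-fold compound dilution was applied for 6-24 hours to Jurkat cells carrying HiBiT-tagged endogenous Cbl-b. Lytic HiBiT luminescence quantified residual protein. Outputs are DC50 and Dmax relative to DMSO control.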

Cbl-b [2] = biological target: T1, Cbl-b; test: Cbl-b Degradation Method A (FACS, anti-Cbl-b antibody staining); assay type: cell-based; settings: Cbl-b-HiBit KI Jurkat Cells, incubated at least 20 hours; for DC50: half maximal degradation, read-out: Cbl-b Degredation Method A IC50; for Dmax: Jurkat, maximum degradation observed, read-out: Cbl-b Degredation Method A Dmax (%)
Outline: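 Readout is flow cytometry of fixed, permeabilized cells immunostained for Cbl-b (primary 1:200, AF488 secondary). Cells were Cbl-b-HiBit knock-in Jurkat, exposed to compound ≥20 h at 37 °C; half-maximal degradation concentration (DC50) and maximal degradation (Dmax) calculated relative to control.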

Compound: C[C@H]1C[C@@H](CN2CCC(CC3CCN(c4ccc5c(c4)C(=O)N(C4CCC(=O)NC4=O)C5=O)CC3)CC2)CN(Cc2cc3c(c(C(F)(F)F)c2)CN(c2cccc(C4(Cc5nncn5C)COC4)c2)C3=O)C1 (stereo partly drawn) [Example 93, 2-(2,6-dioxopiperidin-3-yl)-5-{4-[(1-{[(3S,5S)-5-methyl-1-{[2-(3-{3-[(4-methyl-4H-1,2,4-triazol-3-yl)methyl]oxetan-3-yl}phenyl)-3-oxo-7-(trifluoromethyl)-2,3-dihydro-1H-isoindol-5-yl]methyl}piperidin-3-yl]methyl}piperidin-4-yl)methyl]piperidin-1-yl}-2,3-dihydro-1H-isoindole-1,3-dione]
- DC50 (Cbl-b [1]): < 5 nM
- Dmax (Cbl-b [1]): < 35%
- DC50 (Cbl-b [2]): 5 to 50 nM
- Dmax (Cbl-b [2]): 35 to 70%

Compound: CC1CC(CN2CCC(CC3CCN(c4ccc5c(c4)C(=O)N(C4CCC(=O)NC4=O)C5=O)CC3)CC2)CN(Cc2cc3c(c(C(F)(F)F)c2)CN(c2cccc(C4(Cc5nncn5C)COC4)c2)C3=O)C1 (stereo not shown) [Example 94, 2-(2,6-dioxopiperidin-3-yl)-5-[4-({1-[(5-methyl-1-{[2-(3-{3-[(4-methyl-4H-1,2,4-triazol-3-yl)methyl]oxetan-3-yl}phenyl)-3-oxo-7-(trifluoromethyl)-2,3-dihydro-1H-isoindol-5-yl]methyl}piperidin-3-yl)methyl]piperidin-4-yl}methyl)piperidin-1-yl]-2,3-dihydro-1H-isoindole-1,3-dione]
- DC50 (Cbl-b [1]): < 5 nM
- Dmax (Cbl-b [1]): 35 to 70%
- DC50 (Cbl-b [2]): 5 to 50 nM
- Dmax (Cbl-b [2]): 35 to 70%

Compound: CC1CC(N2CCC(CC3CCN(c4ccc5c(c4)C(=O)N(C4CCC(=O)NC4=O)C5=O)CC3)CC2)CN(Cc2cc3c(c(C(F)(F)F)c2)CN(c2cccc(C4(Cc5nncn5C)COC4)c2)C3=O)C1 (stereo not shown) [Example 95, 2-(2,6-dioxopiperidin-3-yl)-5-{4-[(5′-methyl-1′-{[2-(3-{3-[(4-methyl-4H-1,2,4-triazol-3-yl)methyl]oxetan-3-yl}phenyl)-3-oxo-7-(trifluoromethyl)-2,3-dihydro-1H-isoindol-5-yl]methyl}-[1,3′-bipiperidin]-4-yl)methyl]piperidin-1-yl}-2,3-dihydro-1H-isoindole-1,3-dione]
- DC50 (Cbl-b [1]): > 500 nM
- DC50 (Cbl-b [2]): 50 to 500 nM

Compound: Cn1cnnc1CC1(c2cccc(N3Cc4c(cc(CN5CCC[C@H](CN6CCC(C7CCN(c8ccc9c(c8)C(=O)N(C8CCC(=O)NC8=O)C9=O)CC7)CC6)C5)cc4C(F)(F)F)C3=O)c2)COC1 (stereo partly drawn) [Example 96, 2-(2,6-dioxopiperidin-3-yl)-5-(1′-{[(3R)-1-{[2-(3-{3-[(4-methyl-4H-1,2,4-triazol-3-yl)methyl]oxetan-3-yl}phenyl)-3-oxo-7-(trifluoromethyl)-2,3-dihydro-1H-isoindol-5-yl]methyl}piperidin-3-yl]methyl}-[4,4′-bipiperidin]-1-yl)-2,3-dihydro-1H-isoindole-1,3-dione]
- DC50 (Cbl-b [1]): > 500 nM
- DC50 (Cbl-b [2]): > 500 nM

Compound: Cn1cnnc1CC1(c2cccc(N3Cc4c(cc(CN5CCC[C@H](CN6CCC(CN7CCC(CN8CCN(c9ccc%10c(c9)C(=O)N(C9CCC(=O)NC9=O)C%10=O)CC8)CC7)CC6)C5)cc4C(F)(F)F)C3=O)c2)COC1 (stereo partly drawn) [Example 97, 2-(2,6-dioxopiperidin-3-yl)-5-[4-({1-[(1-{[(3R)-1-{[2-(3-{3-[(4-methyl-4H-1,2,4-triazol-3-yl)methyl]oxetan-3-yl}phenyl)-3-oxo-7-(trifluoromethyl)-2,3-dihydro-1H-isoindol-5-yl]methyl}piperidin-3-yl]methyl}piperidin-4-yl)methyl]piperidin-4-yl}methyl)piperazin-1-yl]-2,3-dihydro-1H-isoindole-1,3-dione]
- DC50 (Cbl-b [1]): < 5 nM
- Dmax (Cbl-b [1]): 35 to 70%
- DC50 (Cbl-b [2]): 5 to 50 nM
- Dmax (Cbl-b [2]): > 70%

Compound: Cn1cnnc1CC1(c2cccc(N3Cc4c(cc(CN5CCC[C@H](CN6CCC7(CC6)CCN(c6ccc8c(c6)C(=O)N(C6CCC(=O)NC6=O)C8=O)CC7)C5)cc4C(F)(F)F)C3=O)c2)COC1 (stereo partly drawn) [Example 98, 2-(2,6-dioxopiperidin-3-yl)-5-(9-{[(3R)-1-{[2-(3-{3-[(4-methyl-4H-1,2,4-triazol-3-yl)methyl]oxetan-3-yl}phenyl)-3-oxo-7-(trifluoromethyl)-2,3-dihydro-1H-isoindol-5-yl]methyl}piperidin-3-yl]methyl}-3,9-diazaspiro[5.5]undecan-3-yl)-2,3-dihydro-1H-isoindole-1,3-dione]
- DC50 (Cbl-b [1]): > 500 nM
- DC50 (Cbl-b [2]): > 500 nM

Compound: Cn1cnnc1CC1(c2cccc(N3Cc4c(cc(CN5CCC(CC6CN(c7cccc8c7C(=O)N(C7CCC(=O)NC7=O)C8=O)C6)CC5)cc4C(F)(F)F)C3=O)c2)COC1 (stereo not shown) [Example 99, 2-(2,6-dioxopiperidin-3-yl)-4-{3-[(1-{[2-(3-{3-[(4-methyl-4H-1,2,4-triazol-3-yl)methyl]oxetan-3-yl}phenyl)-3-oxo-7-(trifluoromethyl)-2,3-dihydro-1H-isoindol-5-yl]methyl}piperidin-4-yl)methyl]azetidin-1-yl}-2,3-dihydro-1H-isoindole-1,3-dione]
- DC50 (Cbl-b [1]): > 500 nM
- DC50 (Cbl-b [2]): > 500 nM

Compound: Cn1cnnc1CC1(c2cccc(N3Cc4c(cc(CN5CCC(N6CCC7(CCN(c8ccc9c(c8)C(=O)N(C8CCC(=O)NC8=O)C9=O)CC7)CC6)CC5)cc4C(F)(F)F)C3=O)c2)COC1 (stereo not shown) [Example 100, 2-(2,6-dioxopiperidin-3-yl)-5-[9-(1-{[2-(3-{3-[(4-methyl-4H-1,2,4-triazol-3-yl)methyl]oxetan-3-yl}phenyl)-3-oxo-7-(trifluoromethyl)-2,3-dihydro-1H-isoindol-5-yl]methyl}piperidin-4-yl)-3,9-diazaspiro[5.5]undecan-3-yl]-2,3-dihydro-1H-isoindole-1,3-dione]
- DC50 (Cbl-b [1]): > 500 nM
- DC50 (Cbl-b [2]): > 500 nM
- Dmax (Cbl-b [2]): < 35%

Compound: Cn1cnnc1CC1(c2cccc(N3Cc4c(cc(CN5CCC[C@H](CN6CCC(CN7CCN(c8ccc9c(c8)C(=O)N(C8CCC(=O)NC8=O)C9=O)CC7)CC6)C5)cc4C(F)(F)F)C3=O)c2)COC1 (stereo partly drawn) [Example 101, 2-(2,6-dioxopiperidin-3-yl)-5-{4-[(1-{[(3R)-1-{[2-(3-{3-[(4-methyl-4H-1,2,4-triazol-3-yl)methyl]oxetan-3-yl}phenyl)-3-oxo-7-(trifluoromethyl)-2,3-dihydro-1H-isoindol-5-yl]methyl}piperidin-3-yl]methyl}piperidin-4-yl)methyl]piperazin-1-yl}-2,3-dihydro-1H-isoindole-1,3-dione]
- DC50 (Cbl-b [1]): > 500 nM
- DC50 (Cbl-b [2]): > 500 nM

Compound: CC1CC(N2CCC(COCCOc3ccc4c(c3)C(=O)N(C3CCC(=O)NC3=O)C4=O)CC2)CN(Cc2cc3c(c(C(F)(F)F)c2)CN(c2cccc(C4(Cc5nncn5C)COC4)c2)C3=O)C1 (stereo not shown) [Example 102, 2-(2,6-dioxopiperidin-3-yl)-5-{2-[(5′-methyl-1′-{[2-(3-{3-[(4-methyl-4H-1,2,4-triazol-3-yl)methyl]oxetan-3-yl}phenyl)-3-oxo-7-(trifluoromethyl)-2,3-dihydro-1H-isoindol-5-yl]methyl}-[1,3′-bipiperidin]-4-yl)methoxy]ethoxy}-2,3-dihydro-1H-isoindole-1,3-dione]
- DC50 (Cbl-b [1]): > 500 nM
- DC50 (Cbl-b [2]): > 500 nM

Compound: Cn1cnnc1CC1(c2cccc(N3Cc4c(cc(CN5CCC(N6CCN(CC7CCN(c8ccc9c(c8)C(=O)N(C8CCC(=O)NC8=O)C9=O)CC7)CC6)CC5)cc4C(F)(F)F)C3=O)c2)COC1 (stereo not shown) [Example 103, 2-(2,6-dioxopiperidin-3-yl)-5-(4-{[4-(1-{[2-(3-{3-[(4-methyl-4H-1,2,4-triazol-3-yl)methyl]oxetan-3-yl}phenyl)-3-oxo-7-(trifluoromethyl)-2,3-dihydro-1H-isoindol-5-yl]methyl}piperidin-4-yl)piperazin-1-yl]methyl}piperidin-1-yl)-2,3-dihydro-1H-isoindole-1,3-dione]
- DC50 (Cbl-b [1]): > 500 nM
- DC50 (Cbl-b [2]): > 500 nM
- Dmax (Cbl-b [2]): 35 to 70%

Compound: Cn1cnnc1CC1(c2cccc(N3Cc4c(cc(CN5CCN(C6CCN(CC7CCN(c8ccc9c(c8)C(=O)N(C8CCC(=O)NC8=O)C9=O)CC7)CC6)CC5)cc4C(F)(F)F)C3=O)c2)COC1 (stereo not shown) [Example 104, 2-(2,6-dioxopiperidin-3-yl)-5-(4-{[4-(4-{[2-(3-{3-[(4-methyl-4H-1,2,4-triazol-3-yl)methyl]oxetan-3-yl}phenyl)-3-oxo-7-(trifluoromethyl)-2,3-dihydro-1H-isoindol-5-yl]methyl}piperazin-1-yl)piperidin-1-yl]methyl}piperidin-1-yl)-2,3-dihydro-1H-isoindole-1,3-dione]
- DC50 (Cbl-b [1]): > 500 nM
- DC50 (Cbl-b [2]): 50 to 500 nM

Compound: Cn1cnnc1CC1(c2cccc(N3Cc4c(cc(CN5CCN(C6CCC7(CC6)CCN(c6ccc8c(c6)C(=O)N(C6CCC(=O)NC6=O)C8=O)CC7)CC5)cc4C(F)(F)F)C3=O)c2)COC1 (stereo not shown) [Example 105, 2-(2,6-dioxopiperidin-3-yl)-5-[9-(4-{[2-(3-{3-[(4-methyl-4H-1,2,4-triazol-3-yl)methyl]oxetan-3-yl}phenyl)-3-oxo-7-(trifluoromethyl)-2,3-dihydro-1H-isoindol-5-yl]methyl}piperazin-1-yl)-3-azaspiro[5.5]undecan-3-yl]-2,3-dihydro-1H-isoindole-1,3-dione]
- DC50 (Cbl-b [1]): > 500 nM
- DC50 (Cbl-b [2]): > 500 nM
